The structures appear in SMILES notation. In brackets after ≈: the same amount, converted by molar mass. A value given as a limit tells only on which side of the number the result lay.

The values that follow come from ChEMBL document CHEMBL5360529, “Pyrimidine derivatives with antitubercular activity” (Eur J Med Chem, 2023).

For series [1], the system named is Mycobacterium tuberculosis. Briefly: Antimycobacterial activity against Mycobacterium tuberculosis H37RV assessed as bacterial growth inhibition. The series is classed as functional.
The target of series [2] is T1, Thymidylate kinase (Mycobacterium tuberculosis, UniProt P9WKE1).
T1 sequence (P9WKE1 whole entry): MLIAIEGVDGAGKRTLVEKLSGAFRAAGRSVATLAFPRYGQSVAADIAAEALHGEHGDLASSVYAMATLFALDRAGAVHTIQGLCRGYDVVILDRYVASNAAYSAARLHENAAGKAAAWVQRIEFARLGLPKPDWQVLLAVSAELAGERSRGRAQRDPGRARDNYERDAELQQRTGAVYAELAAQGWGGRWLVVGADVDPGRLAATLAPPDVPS
Nature of the series: Inhibition of Mycobacterium tuberculosis TMPK assessed as inhibition constant.

The test system of series [3] is Mycobacterium tuberculosis. Nature of the series: Antimycobacterial activity against Mycobacterium tuberculosis assessed as bacterial growth inhibition measured after 14 to 21 day. Format: functional. Conditions: time 14-21 day.
Series [4] has as its target Adenosine kinase (Mycobacterium tuberculosis (strain CDC 1551 / Oshkosh), UniProt P9WID4). Briefly: Inhibition of Mycobacterium tuberculosis ADK.
The subject of series [5] is Mycobacterium tuberculosis. Nature of the series: Antimycobacterial activity against Mycobacterium tuberculosis My331/88 assessed as bacterial growth inhibition measured after 14 to 21 day. Format: functional. The conditions noted are these: time 14-21 day.
The target in series [6] is Adenosine kinase (Homo sapiens, UniProt P55263). Briefly: Inhibition of human ADK.
Series [7] deals with T2, Thymidylate kinase (Homo sapiens, UniProt P23919).
T2 sequence (P23919 whole entry): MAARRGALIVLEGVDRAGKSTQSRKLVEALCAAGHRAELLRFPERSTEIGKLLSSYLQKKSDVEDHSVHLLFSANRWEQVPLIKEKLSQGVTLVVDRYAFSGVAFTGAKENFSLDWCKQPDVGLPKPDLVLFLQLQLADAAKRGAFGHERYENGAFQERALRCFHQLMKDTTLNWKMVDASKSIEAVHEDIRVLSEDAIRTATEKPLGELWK
Nature of the series: Inhibition of human TMPK assessed as inhibition constant.

Series [8] can be described thus: Selectivity index, ratio of Ki for human TMPK to Ki for Mycobacterium tuberculosis TMPK.
Series [9] has as its system Mycobacterium tuberculosis. Briefly: Antimycobacterial activity against Mycobacterium tuberculosis H37Rv assessed as bacterial growth inhibition by microplate Alamar blue assay. Format: functional.
The subject of series [10] is Mycobacterium tuberculosis. Nature of the series: Antimycobacterial activity against Mycobacterium tuberculosis H37Rv infected in po dosed C57BL/6 mouse assessed as bacterial growth inhibition measured after 8 days. The series is classed as functional. The conditions noted are these: 192 h, time 8 day.
Series [11] concerns Mycobacterium tuberculosis. Briefly: Antimycobacterial activity against Mycobacterium tuberculosis infected in Macrophage cell (unknown origin) assessed as bacterial growth inhibition. Format: functional.
The subject of a further series is HepG2. Nature of the series: Anticancer activity against human HepG2 cells assessed as cell growth inhibition. Format: functional, cell-based.
Series [12] can be described thus: Selectivity index, ratio of IC50 for anticancer activity against human HepG2 cells to MIC for antimycobacterial activity against Mycobacterium tuberculosis. Conditions: read-out: Selectivity Index. Format: toxicity, cell-based.

Sequence of Adenosine kinase (Homo sapiens, UniProt P55263) (P55263 whole entry): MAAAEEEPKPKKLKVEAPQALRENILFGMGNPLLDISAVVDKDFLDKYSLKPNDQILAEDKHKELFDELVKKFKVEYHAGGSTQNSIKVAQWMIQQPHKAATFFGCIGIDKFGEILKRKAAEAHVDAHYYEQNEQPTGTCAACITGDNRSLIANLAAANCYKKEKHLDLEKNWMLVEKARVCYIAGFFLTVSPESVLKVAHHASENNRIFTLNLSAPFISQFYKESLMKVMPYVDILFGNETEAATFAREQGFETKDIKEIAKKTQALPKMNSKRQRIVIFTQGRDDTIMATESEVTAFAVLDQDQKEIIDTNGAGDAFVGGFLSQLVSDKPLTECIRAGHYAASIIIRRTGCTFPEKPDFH
Sequence of Adenosine kinase (Mycobacterium tuberculosis (strain CDC 1551 / Oshkosh), UniProt P9WID4) (P9WID4 whole entry): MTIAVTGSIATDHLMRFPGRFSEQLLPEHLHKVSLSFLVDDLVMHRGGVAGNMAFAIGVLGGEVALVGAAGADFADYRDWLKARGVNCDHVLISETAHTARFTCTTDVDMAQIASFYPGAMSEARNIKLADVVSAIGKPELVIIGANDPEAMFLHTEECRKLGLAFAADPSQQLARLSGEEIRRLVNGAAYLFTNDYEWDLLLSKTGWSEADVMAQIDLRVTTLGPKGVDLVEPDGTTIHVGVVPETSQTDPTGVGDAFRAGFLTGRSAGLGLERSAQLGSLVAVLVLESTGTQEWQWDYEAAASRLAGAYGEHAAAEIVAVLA

Consider `O=c1nc(N2CCN(CC3CCCCC3)CC2)sc2c([N+](=O)[O-])cc(C(F)(F)F)cc12` [MACOZINONE], for which the MIC in series [1] is not above 0.00019 µg/mL.
A word on the Ki: it is the equilibrium dissociation constant of an inhibitor or competing ligand from its target. For `Cc1cn([C@H]2C[C@H](NC(=O)N[C@H]3C[C@H](c4[nH]c(=O)[nH]c(=O)c4C)O[C@@H]3O)[C@@H](CO)O2)c(=O)[nH]c1=O`, the Ki on Thymidylate kinase [2] came to 37 µM.
On to `COc1ccc(-c2cc(=O)n3nc(C)c(-c4ccc(Cl)cc4)c3[nH]2)cc1`, for which the MIC in series [1] worked out at 3.12 µM.
Same read-out and setting: the figure for `COc1ccc(Cn2cnc3c(-c4ccco4)nc(Cl)nc32)cc1` is 0.78 µg/mL.
Broadly, the IC50 is the concentration that inhibits the measured activity by half. For `OC[C@H]1O[C@@H](n2ccc3c(-c4cccc5c4oc4ccccc45)nc(F)nc32)[C@H](O)[C@@H]1O`, the MIC in series [3] and in [5] was 32 µM (≈ 13.9 µg/mL) throughout. For the same compound, the IC50 at Adenosine kinase [4] is 0.18 µM; against Adenosine kinase [6], more than 20 µM.
Regarding `NCC[C@H](O)C(=O)N[C@@H]1C[C@H](N)[C@@H](O[C@H]2O[C@H](CN)[C@@H](O)[C@H](O)[C@H]2O)[C@H](O)[C@H]1O[C@H]1O[C@H](CO)[C@@H](O)[C@H](N)[C@H]1O` [AMIKACIN], the MIC in series [1] was determined as 2 µg/mL.
Still for that read-out and setting: with `Cc1nn2c(=O)cc(-c3ccccc3)[nH]c2c1-c1ccccc1` the figure was 3.12 µM.
In the case of `Cc1cn([C@H]2C[C@H](O)[C@@H](CNC(=S)Nc3ccc(Cl)c(C(F)(F)F)c3)O2)c(=O)[nH]c1=O`, the inhibition constant (Ki) on Thymidylate kinase [7] was 362 µM; on Thymidylate kinase [2], 0.6 µM. Besides, the Ratio Ki in [8] was 600.
Regarding `O=c1cc(CC2CCCCC2)[nH]c2c(-c3ccc(Cl)cc3)cnn12`, in series [1], the MIC worked out at 0.78 µM.
As usually defined, the IC90 is the point of the concentration-response curve where the effect stands at 90%. Consider `COc1ccc(CNc2nc(F)nc(-c3ccco3)c2NC=O)cc1`, for which, in series [1], the concentration for an effect of 90% (IC90) is less than 0.2 µg/mL.
As to `OC[C@H]1O[C@@H](n2ccc3c(-c4cc5ccccc5o4)nc(F)nc32)[C@H](O)[C@@H]1O`, the IC50 was 1.2 µM against Adenosine kinase [4] and more than 10 µM at Adenosine kinase [6]. In addition, the MIC in series [5] was found to be 62.5 µM (≈ 24.1 µg/mL).
Regarding `O=c1cc(-c2ccc(Cl)cc2)[nH]c2c(-c3ccc(Cl)cc3)cnn12`, the MIC in [1] turned out to be 12.5 µM.
On to `Cc1cn([C@@H]2O[C@H](CO)[C@H]3CNC(=S)O[C@H]32)c(=O)[nH]c1=O`, for which, in series [8], the Ratio Ki is 200.
For `COc1ccc(CNc2nc(C)nc(-c3ccco3)c2NC=O)cc1`, the IC90 in series [1] was 0.33 µg/mL (≈ 0.975 µM).
`CCCSc1nc(Cl)c(C#N)c(-c2cccs2)n1`: the MIC in series [9] worked out at 0.78 µg/mL.
For `CC(=O)NC[C@H]1CN(c2ccc(N3CCOCC3)c(F)c2)C(=O)O1` [LINEZOLID], in series [10], the ED99 was 28 mg/kg.
As to `COc1ccc(CNc2nc(Cl)nc(-c3ccco3)c2NC=O)cc1`, the concentration for an effect of 90% (IC90) in [1] was found to be 0.29 µg/mL (≈ 0.808 µM).
As to `COc1c(N2C[C@@H]3CCCN[C@@H]3C2)c(F)cc2c(=O)c(C(=O)O)cn(C3CC3)c12` [MOXIFLOXACIN], the ED99 in [10] was found to be 27.7 mg/kg.
Consider `CCCSc1nc(Cl)c(C#N)c(-c2ccco2)n1`, for which the MIC in [9] was 0.78 µg/mL.
On the same count and under the same terms, the figure for `CCCSc1nc(Cl)c(C#N)c(-c2cccc(F)c2)n1` is 0.78 µg/mL.
For `O=C(C1CCN(c2cc(N3CCOCC3)ncn2)CC1)N1CCC(Oc2ccc(F)cc2)CC1`, the ED99 in series [10] stood at 30 mg/kg.
In the case of `Cc1nn2c(=O)cc(-c3ccc(F)c(F)c3)[nH]c2c1-c1ccccc1`, the figures for the MIC in series [1] and in [11] were 1.56 µM and 2.73 µM (≈ 0.921 µg/mL), respectively. In addition, the concentration for half-maximal inhibition (IC50) in the series with HepG2 is more than 100 µM. Further, in series [12], the selectivity ratio is more than 36.
With `N#Cc1c(Cl)nc(SCc2ccc(Cl)cc2)nc1-c1cccs1`, the MIC in [9] is 0.78 µg/mL.
Consider `O=C(C1CCN(c2cc(N3CCOCC3)ncn2)CC1)N1CCC(Cc2ccc(F)cc2)CC1`, for which the ED99 in [10] was determined as 29 mg/kg.
